In article PMC11742723, “The clinical-stage drug BTZ-043 accumulates in murine tuberculosis lesions and efficiently acts against Mycobacterium tuberculosis” (Nature Communications, 2025):
“And” between values parts separate entries of the source, which are not always exact repeats. Identical values can stand only once.

Assays:
Mtb H37Rv [1] = assay: BTZ-043 dose-fractionation study in Mtb-infected BALB/c mice (lung CFU); type: in vivo, Mycobacterium tuberculosis; conditions: 10 mg /kg INH; 6 weeks of treatment; individual female mice
Mtb H37Rv [2] = assay: BTZ-043 dose escalation study in Mtb-infected BALB/c mice (pulmonary CFU); type: in vivo, Mycobacterium tuberculosis; conditions: 25 mg/kg INH, individual female mice
Caco-2 = conditions: cited from earlier work
Caco-2 cell monolayers = assay: In vitro permeability assay in Caco-2 monolayers; conditions: for Concentration: replicates 1-3
[3] = In vitro permeability assay in Caco-2 monolayers; conditions: human; for Papp at 120 min, 25 µg/mL / Papp at 120 min, 40 µg/mL: Caco-2, Mean Papp, n=3; for Papp at 120 min, 25 µg/mL: Caco-2, 25 µg/mL; for Papp at 120 min, 40 µg/mL: Caco-2, 40 µg/mL
[4] = cited from earlier work

NNC(=O)c1ccncc1 [INH, isoniazid, reference compound]
pulmonary CFU counts / mouse (Mtb H37Rv [1]): 251 CFU counts / mouse (2×) and 876 CFU counts / mouse and 1751 CFU counts / mouse | pulmonary CFU counts / mouse (Mtb H37Rv [2]; 4 weeks of treatment): 306600 CFU counts / mouse and 698438 CFU counts / mouse and 504563 CFU counts / mouse and 274286 CFU counts / mouse and 298200 CFU counts / mouse and 595125 CFU counts / mouse | pulmonary CFU counts / mouse (Mtb H37Rv [2]; 6 weeks of treatment): 135000 CFU counts / mouse and 142313 CFU counts / mouse and 207692 CFU counts / mouse and 103500 CFU counts / mouse and 144000 CFU counts / mouse and 145313 CFU counts / mouse | pulmonary CFU counts / mouse (Mtb H37Rv [2]; 8 weeks of treatment): 40714 CFU counts / mouse and 48086 CFU counts / mouse and 100000 CFU counts / mouse and 45000 CFU counts / mouse and 32560 CFU counts / mouse and 144000 CFU counts / mouse

NC(=O)c1cnccn1 [PZA, pyrazinamide]
Papp (AB) (Caco-2): 70.4 10^−6 cm/s | Papp (BA) (Caco-2): 37.1 10^−6 cm/s | permeability classification (Caco-2 cell monolayers; Caco-2): highly permeable drug | Concentration (Caco-2 cell monolayers; PZA 25 μg mL^-1, direction AB, time 0 min): 0 µg/mL | Concentration (Caco-2 cell monolayers; PZA 25 μg mL^-1, direction AB, time 10 min): 0 µg/mL and 0.525202 µg/mL | Concentration (Caco-2 cell monolayers; PZA 25 μg mL^-1, direction AB, time 30 min): 1.33317 µg/mL and 1.09685 µg/mL and 1.00565 µg/mL | Concentration (Caco-2 cell monolayers; PZA 25 μg mL^-1, direction AB, time 60 min): 3.32125 µg/mL and 3.45237 µg/mL and 3.34143 µg/mL | Concentration (Caco-2 cell monolayers; PZA 25 μg mL^-1, direction AB, time 90 min): 3.15886 µg/mL and 3.25304 µg/mL and 3.09763 µg/mL | Concentration (Caco-2 cell monolayers; PZA 25 μg mL^-1, direction AB, time 120 min): 4.0302 µg/mL and 4.13852 µg/mL and 3.49073 µg/mL | Concentration (Caco-2 cell monolayers; PZA 25 μg mL^-1, direction BA, time 0 min): 0 µg/mL | Concentration (Caco-2 cell monolayers; PZA 25 μg mL^-1, direction BA, time 10 min): 1.50399 µg/mL and 1.31717 µg/mL and 1.94163 µg/mL | Concentration (Caco-2 cell monolayers; PZA 25 μg mL^-1, direction BA, time 30 min): 5.73438 µg/mL and 4.42773 µg/mL and 5.44692 µg/mL | Concentration (Caco-2 cell monolayers; PZA 25 μg mL^-1, direction BA, time 60 min): 9.78614 µg/mL and 7.99445 µg/mL and 7.97563 µg/mL | Concentration (Caco-2 cell monolayers; PZA 25 μg mL^-1, direction BA, time 90 min): 11.2594 µg/mL and 8.63113 µg/mL and 9.90108 µg/mL | Concentration (Caco-2 cell monolayers; PZA 25 μg mL^-1, direction BA, time 120 min): 13.4058 µg/mL and 11.0067 µg/mL and 13.5587 µg/mL | Concentration (Caco-2 cell monolayers; PZA 40 μg mL^-1, direction AB, time 0 min): 0 µg/mL | Concentration (Caco-2 cell monolayers; PZA 40 μg mL^-1, direction AB, time 10 min): 1.04864 µg/mL and 0.287742 µg/mL and 2.32722 µg/mL | Concentration (Caco-2 cell monolayers; PZA 40 μg mL^-1, direction AB, time 30 min): 1.43093 µg/mL and 3.432 µg/mL and 3.59269 µg/mL | Concentration (Caco-2 cell monolayers; PZA 40 μg mL^-1, direction AB, time 60 min): 4.85322 µg/mL and 4.3497 µg/mL and 4.27528 µg/mL | Concentration (Caco-2 cell monolayers; PZA 40 μg mL^-1, direction AB, time 90 min): 5.77039 µg/mL and 5.6019 µg/mL and 5.43688 µg/mL | Concentration (Caco-2 cell monolayers; PZA 40 μg mL^-1, direction AB, time 120 min): 4.97756 µg/mL and 4.11308 µg/mL and 4.44077 µg/mL | Concentration (Caco-2 cell monolayers; PZA 40 μg mL^-1, direction BA, time 0 min): 4.04586 µg/mL and 0.11541 µg/mL and 0.340993 µg/mL | Concentration (Caco-2 cell monolayers; PZA 40 μg mL^-1, direction BA, time 10 min): 3.96946 µg/mL and 1.84377 µg/mL and 2.66948 µg/mL | Concentration (Caco-2 cell monolayers; PZA 40 μg mL^-1, direction BA, time 30 min): 5.45968 µg/mL and 4.47297 µg/mL and 5.08694 µg/mL | Concentration (Caco-2 cell monolayers; PZA 40 μg mL^-1, direction BA, time 60 min): 9.73439 µg/mL and 8.33956 µg/mL and 9.59197 µg/mL | Concentration (Caco-2 cell monolayers; PZA 40 μg mL^-1, direction BA, time 90 min): 11.6116 µg/mL and 10.2571 µg/mL and 12.3779 µg/mL | Concentration (Caco-2 cell monolayers; PZA 40 μg mL^-1, direction BA, time 120 min): 12.9042 µg/mL and 13.2645 µg/mL and 15.05 µg/mL | Calculated Amount (Caco-2 cell monolayers; PZA (25 µg mL^-1), direction AB, compartment api, time 0 min): 20066.1 and 22292.2 and 24678 | Calculated Amount (Caco-2 cell monolayers; PZA (25 µg mL^-1), direction AB, compartment api, time 120 min): 10717.9 and 11820.9 and 10695.5 | Calculated Amount (Caco-2 cell monolayers; PZA (25 µg mL^-1), direction AB, compartment baso, time 0 min): 0 | Calculated Amount (Caco-2 cell monolayers; PZA (25 µg mL^-1), direction AB, compartment baso, time 30 min): 1096.85 and 1005.65 | Calculated Amount (Caco-2 cell monolayers; PZA (25 µg mL^-1), direction AB, compartment baso, time 60 min): 3321.25 and 3452.37 and 3341.43 | Calculated Amount (Caco-2 cell monolayers; PZA (25 µg mL^-1), direction AB, compartment baso, time 90 min): 3158.86 and 3253.04 and 3097.63 | Calculated Amount (Caco-2 cell monolayers; PZA (25 µg mL^-1), direction AB, compartment baso, time 120 min): 4030.2 and 4138.52 and 3490.73 | Calculated Amount (Caco-2 cell monolayers; PZA (25 µg mL^-1), direction BA, compartment api, time 0 min): 0 | Calculated Amount (Caco-2 cell monolayers; PZA (25 µg mL^-1), direction BA, compartment api, time 10 min): 1503.99 and 1317.17 and 1941.63 | Calculated Amount (Caco-2 cell monolayers; PZA (25 µg mL^-1), direction BA, compartment api, time 30 min): 5734.38 and 4427.73 and 5446.92 | Calculated Amount (Caco-2 cell monolayers; PZA (25 µg mL^-1), direction BA, compartment api, time 60 min): 9786.14 and 7994.45 and 7975.63 | Calculated Amount (Caco-2 cell monolayers; PZA (25 µg mL^-1), direction BA, compartment api, time 90 min): 11259.4 and 8631.13 and 9901.08 | Calculated Amount (Caco-2 cell monolayers; PZA (25 µg mL^-1), direction BA, compartment api, time 120 min): 13405.8 and 11006.7 and 13558.7 | Calculated Amount (Caco-2 cell monolayers; PZA (25 µg mL^-1), direction BA, compartment baso, time 120 min): 22133.4 | Calculated Amount (Caco-2 cell monolayers; PZA (40 µg mL^-1), direction AB, compartment api, time 120 min): 15162.6 and 15570.7 and 14836.3 | Calculated Amount (Caco-2 cell monolayers; PZA (40 µg mL^-1), direction BA, compartment baso, time 120 min): 27713.4 and 29783.3 and 27759.2 | Papp A→B at 120 min ([3]; Caco-2): 497 to 610 nm/s | Papp B→A at 120 min ([3]; Caco-2): 350 to 392 nm/s | efflux ratio at 120 min, 25 µg/mL ([3]; Caco-2): 0.79 | efflux ratio at 120 min, 40 µg/mL ([3]; Caco-2): 0.57 | Papp at 120 min, 25 µg/mL ([3]; direction AB): 497 nm/s | Papp at 120 min, 25 µg/mL ([3]; direction BA): 392 nm/s | Papp at 120 min, 40 µg/mL ([3]; direction AB): 610 nm/s | Papp at 120 min, 40 µg/mL ([3]; direction BA): 350 nm/s | penetration into centrally necrotizing granulomas [4]: readily penetrates centrally necrotizing granulomas

CO[C@H]1/C=C/O[C@@]2(C)Oc3c(C)c(O)c4c(O)c(c(/C=N/N5CCN(C)CC5)c(O)c4c3C2=O)NC(=O)/C(C)=C\C=C\[C@H](C)[C@H](O)[C@@H](C)[C@@H](O)[C@@H](C)[C@H](OC(C)=O)[C@@H]1C [RIF, rifampicin]
penetration into the cellular rim and necrotic center [4]: at least some penetration

CC(C)=CCC/C(C)=C/CNCCNC1C2CC3CC(C2)CC1C3 (stereo not shown) [SQ109]
distribution in centrally necrotizing lesions by MALDI imaging ([4]; in vivo): strong signals in the cellular rim of centrally necrotizing lesions but only poor diffusion into the avascular caseum

CC(C)/N=c1\cc2n(-c3ccc(Cl)cc3)c3ccccc3nc-2cc1Nc1ccc(Cl)cc1 [clofazimine]
Papp (AB) (Caco-2): 0.17 10^−6 cm/s | Papp (BA) (Caco-2): 0.18 10^−6 cm/s | penetration into centrally necrotizing granulomas [4]: only very limited penetration
